# Measured values from paper PMC11561307, “Ultra-inert lanthanide chelates as mass tags for multiplexed bioanalysis” (Nature Communications, 2024).
# What was measured:
# [1] = Hydrolysis of ClickZip conjugates with model hexapeptide in HCl; assay type: physicochemical; settings: 0.5 mM conjugate in 2 M HCl at 80 °C; HPLC 285 nm; Y value after 4 d
# Method: While the acid-assisted dechelation of lanthanide DOTA chelates proceeds with a rate similar to hydrolysis of a peptide bond[24], the ultra-inert ClickZip chelates of Lu^III and near lanthanides should outlast complete hydrolysis of peptides and proteins. To test this, we prepared model hexapeptide conjugates with two ClickZip derivatives, HO2CPh{Ln} or HO2CBn{Ln}, which differed in their amide linkage to the peptide N-end (Fig. 6). Hydrolysis in 2 M HCl at 80 °C digested the peptide to individual amino acids; the chelates were cleaved from the peptide with no loss of the metal (Lu^III or Tm^III), or only small loss (5% for Y^III chelate).
# Fig. 6 ClickZip and peptide bond stability comparison. Hydrolysis of ClickZip conjugates with model hexapeptide AYFHVG-NH2 connected by either aromatic or aliphatic amide bonds in strong acid. Conditions: 0.5 mM {Ln}PhCO-AYFHVG-NH2 or {Ln}BnCO-AYFHVG-NH2 in 2 M HCl at 80 °C. Analysis: λ = 285 nm (HPLC, H2O–MeCN, formic acid additive). […] The hydrolysis is faster for {Ln}BnCO-AYFHVG-NH2 species connected to the peptide via aliphatic amide moiety (n = 1) where HO2CBn{Ln} is formed quantitatively after 1 d. […] Nevertheless, prolonged reaction time led to quantitative formation of HO2CPh{Ln}. […]
# [2] = Epimerization of BocCys{Lu} diastereomers followed by 1H NMR; assay type: physicochemical; settings: Supp. Fig. 22B, chirality inversion
# Description: The ClickZip chelates are inherently chiral, with defined rotation of the pendant arms (Λ or Δ) and of the four ethylene units in the cyclen ring (λλλλ or δδδδ), analogous to the DOTA system[15],[27],[34]. However, in contrast to DOTA, they only adopt enantiomeric Λλλλλ and Δδδδδ forms with twisted-square antiprismatic (TSA) arrangements (Fig. 4). To probe whether these enantiomers can interconvert, we modified {Lu} with L-cysteine residues to produce a pair of distinguishable diastereomers. […] The enantiomers of {M} can thus be regarded either as one or two compounds, depending on the time scale.
# Fig. 4 Chirality of ClickZip chelates. Inherent chirality of the molecules is given by rotation of the pendant arms (Λ or Δ) and of the four ethylene units in the cyclen ring (λλλλ or δδδδ). In theory, four isomers are possible: two twisted square antiprismatic (TSA) enantiomers (Λλλλλ and Δδδδδ), and two square antiprismatic (SA) enantiomers (Δλλλλ and Λδδδδ). The ClickZip chelates exclusively adopt the TSA arrangements Λλλλλ and Δδδδδ, which were observed together in all solid-state structures as well as in solution. These two forms interconvert on the time scale of hours at 37 °C (Supplementary Fig. 22). Both enantiomers shown here were found in the crystal structure of [{Lu}]^+[ClO4]^−·5H2O. Thermal ellipsoids were set at 50% probability.
# Supplementary Fig. 97. Synthesis of BocCys {Lu} and its epimer separation. In a glass vial (4 mL), [Cl{Lu}] +[T FA ]−·5.1H2O (4.0 mg; 4.2 µmol; 1.0 equiv.) was dissolved in DMSO (160 µL) followed by addition of N-Boc-cysteine (200 mM in DMSO; 31 µL; 6.2 µmol; 1.5 equiv.) and DIPEA (7.3 µL; 42 µmol; 10 equiv.) and the resulting solution was stirred for 16 h at 40 °C. Mixture (containing racemic mixture of BocCys {Lu} epimers) was then diluted with DMSO (0.5 mL) and filtered through syringe microfilter (RC). Filtrate was then directly purified by preparative HPLC […]
# Fractions with epimer A (front part of the first eluting peak) and B (latter part of the second eluting peak) were quickly freezed and directly lyophilized. The resulting solids were dissolved in 500 μL of deuterated 50 mM MOPS/NaOD buffer (formal pH 7.4; obtained from MOPS/NaOH buffer of such pH by multiple evaporation/D2O resupply cycles). Epimer A (obtained in slightly higher epimeric purity than epimer B) was used for continuous 1H NMR epimerization study at 37 °C (Supplementary Fig. 22) while epimer B was incubated concurrently under identical conditions on heated magnetic stirrer. Conversion: ≥95% (based on Cl {Lu}).
compound,measurement,setting,value
"{Y}PhCO-AYFHVG-NH2 [model hexapeptide conjugate with {Y} tag, aromatic amide]",loss (leak) of metal ion during hydrolysis of hexapeptide conjugate,[1],~ 5%
"O=C(CN1CC2CC(=O)Nc3cccc1c32)Nc1ccc2c(c1)C[C@]1(C2)C(=O)Nc2ncccc21 (single isomer, unassigned) [epimer A]","abundance, % of epimer",[2]; 0.757 h,89.6%
same,"abundance, % of epimer",[2]; 0.913 h,83.6%
same,"abundance, % of epimer",[2]; 1.220 h,84.0%
same,"abundance, % of epimer",[2]; 1.376 h,90.7%
same,"abundance, % of epimer",[2]; 1.532 h,83.1%
same,"abundance, % of epimer",[2]; 1.735 h,83.8%
same,"abundance, % of epimer",[2]; 1.891 h,74.9%
same,"abundance, % of epimer",[2]; 2.467 h,74.2%
same,"abundance, % of epimer",[2]; 2.641 h,78.5%
same,"abundance, % of epimer",[2]; 2.985 h,70.9%
same,"abundance, % of epimer",[2]; 3.611 h,62.0%
same,"abundance, % of epimer",[2]; 4.238 h,64.6%
same,"abundance, % of epimer",[2]; 4.864 h,63.0%
same,"abundance, % of epimer",[2]; 5.489 h,63.7%
same,"abundance, % of epimer",[2]; 6.704 h,52.8%
same,"abundance, % of epimer",[2]; 7.918 h,58.7%
same,"abundance, % of epimer",[2]; 9.132 h,55.2%
same,"abundance, % of epimer",[2]; 10.346 h,50.5%
same,"abundance, % of epimer",[2]; 11.560 h,49.5%
same,"abundance, % of epimer",[2]; 12.775 h,50.6%
same,"abundance, % of epimer",[2]; 13.988 h,49.2%
same,"abundance, % of epimer",[2]; 17.779 h,50.3%
